Source: paper PMC11206789, “Controlling the Solubility, Release Rate and Permeation of Riluzole with Cyclodextrins” (Pharmaceutics, 2024)

Assays:
[1] = 298.15 K, in water with undefined pH; cited from earlier work
[2] = RLZ/CD stability constant from phase-solubility diagrams, van't Hoff thermodynamics; assay type: physicochemical; details: for Complexation (stability) constant KCS of RLZ/CD complex: 1:1 complex
Description: The standard (at 298.15 K) enthalpy change ( ΔHC0,S ) and the standard entropy change ( ΔSC0,S ) upon complex formation were calculated with the help of the integral form of the van’t Hoff’s equation:(4) lnKCS=−ΔHC0,S/RT+ΔSC0,S/R where T = 298.15 K, and R is the universal gas constant. A plot of lnKCS versus 1/T produces Slope=−ΔHC0,S/R and intercept equal to ΔSC0,S/R . The standard (at 298.15 K) change of the complexation Gibbs energy ( ΔGC0,S ) was calculated as follows:(5) ΔGC0,S=−RTlnKCS

[3] = Dissolution of solid samples under dynamic conditions, side-by-side cell; assay type: physicochemical; details: for DE60, dissolution efficacy at 60 min / DPP, dissolution performance parameter / Q15, amount of RLZ dissolved at 15 min: buffer pH 6.8, 310 K; for Q15, amount of RLZ dissolved at 15 min: RLZ amount of 100 mg daily dose; for Dose dissolved during 180 min: buffer pH 6.8, 310.15 K
Description: The volume of the donor compartment was 7 mL. The powdered samples were placed in the donor cell. Then, 7 mL of buffer pH 6.8 was added to the donor compartment (start of the experiment). The solution was stirred with a stirring bar at a fixed speed of 500 rpm. The cell was maintained at 310.15 K during the experiment via water circulating. The samples of the solutions (V = 0.4 mL) from the donor cell were withdrawn every 5, 10, 15, 20, 25, 30, 40, 60, 90, 120, and 180 min followed by immediate replacement with fresh medium. The experiment lasted 3 h. The samples from the donor cell were filtered (syringe nylon filter, 13 mm diameter, pore size 0.45 μm). The concentrations of the samples were measured in a 96-well UV black plate (Costar) using a spectrophotometer (Spectramax 190; Molecular devices, Molecular Devices Corporation, San Jose, CA, USA). The kinetic curves of the dissolution/release of pure RLZ and RLZ from the solid samples were obtained.
The dissolution performance parameter (DPP), was calculated as follows:(16) DPP=AUCactual/AUCtheoretical×100% where AUCactual is the integral area under the curve C0Ct, and AUCtheoretical is the integral area under the curve CmaxCmax. Dissolution efficacy after 60 min (DE60)—a percentage of the area of the rectangle described by 100% dissolution at 60 min was determined by the calculation of the area under a dissolution curve up to 60 min by the following equation [49]:(17) DE60=∫060Qdt/Q100%×60×100% where Q is the percentage of the dissolved drug, t is the dissolution time point at 60 min.

[4] = Permeation under dynamic conditions (D/P setup), cellulose membrane; assay type: in vitro ADME; details: RC membrane, 310.15 K
Text: The membrane of regenerated cellulose MWCO 12–14 kDa (Visking dialysis tubing MWCO 12–14 kDa, Medicell Membranes Ltd., London, UK) was applied as a barrier between the donor and receptor cells with an effective surface area of 1.77 cm^2. In addition, the PermeaPad barrier (PP) (PHABIOC, Germany, https://www.permeapad.com (accessed on 1 February 2023)) and polydimethylsiloxane-polycarbonate (55% polydimethylsiloxane and 45% polycarbonate, 40 μm in thickness) membrane “Carbosil” (PDS) (PENTAMED, Moscow, Russia, www.penta-med.ru) were used in a series of tests. The volume of the receptor compartment was the same as the donor one—7 mL. The donor and receptor cells were assembled with a membrane between them. The receptor compartment was filled with 7 mL of buffer pH 6.8. In the case of the samples with CD, the receptor solution contained the amount of CD equivalent to that in the solid sample. The solution in the receptor cell was stirred at 500 rpm. The constant temperature of 310.15 K was maintained. […]
Quantitative analysis of the permeation was evaluated using the flux (J) through the membrane which was determined as a slope of the permeation profiles representing the amount of permeated compound over the surface area (dQ/A) versus the time (t) in accordance with the equation:(20) J=dQ/A×dt

| Molecule | Stability constant of cyclodextrin complex with RLZ [1] [M⁻¹] | DE60, dissolution efficacy at 60 min [3] [%] | DPP, dissolution performance parameter [3] [%] | Q15, amount of RLZ dissolved at 15 min [3] [%] | Increase of flux across the membrane, 30–180 min versus up to 30 min [4] [fold] | also measured |
| --- | --- | --- | --- | --- | --- | --- |
| COC[C@H]1O[C@@H]2O[C@H]3[C@H](O)[C@@H](OC)[C@@H](O[C@H]4[C@H](O)[C@@H](OC)[C@@H](O[C@H]5[C@H](O)[C@@H](OC)[C@@H](O[C@H]6[C@H](O)[C@@H](OC)[C@@H](O[C@H]7[C@H](O)[C@@H](OC)[C@@H](O[C@H]8[C@H](O)[C@@H](OC)[C@@H](O[C@H]1[C@H](O)[C@H]2OC)O[C@@H]8COC)O[C@@H]7COC)O[C@@H]6COC)O[C@@H]5COC)O[C@@H]4COC)O[C@@H]3COC [DM-β-CD, 2,6-di-O-methyl-β-cyclodextrin] | 1609.1 | – | – | – | – | – |
| sulfobutylether-β-cyclodextrin [SBE-β-CD] | – | – | – | – | – | Fold more stable RLZ complex as compared to α-CD ([2]; from Table 2): 11 fold; Complexation (stability) constant KCS of RLZ/CD complex ([2]; pH 6.8, 298.15 K): 1116.0 M⁻¹ |
| Nc1nc2ccc(OC(F)(F)F)cc2s1 [RLZ_raw] | – | 30.0 | 46.2 | 22.9 | 1.3 | Dose dissolved during 180 min ([3]; listed as raw RLZ): 62% |
| CC(O)COC[C@H]1O[C@@H]2O[C@H]3[C@H](O)[C@@H](O)[C@@H](O[C@H]4[C@H](O)[C@@H](O)[C@@H](O[C@H]5[C@H](O)[C@@H](O)[C@@H](O[C@H]6[C@H](O)[C@@H](O)[C@@H](O[C@H]7[C@H](O)[C@@H](O)[C@@H](O[C@H]8[C@H](O)[C@@H](O)[C@@H](O[C@H]1[C@H](O)[C@H]2O)O[C@@H]8COCC(C)O)O[C@@H]7COCC(C)O)O[C@@H]6COCC(C)O)O[C@@H]5COCC(C)O)O[C@@H]4COCC(C)O)O[C@@H]3COCC(C)O (stereo partly drawn) [HP-β-CD, hydroxypropyl-β-cyclodextrin] | 2327 | – | – | – | – | – |
| OC[C@H]1O[C@@H]2O[C@H]3[C@H](O)[C@@H](O)[C@@H](O[C@H]4[C@H](O)[C@@H](O)[C@@H](O[C@H]5[C@H](O)[C@@H](O)[C@@H](O[C@H]6[C@H](O)[C@@H](O)[C@@H](O[C@H]7[C@H](O)[C@@H](O)[C@@H](O[C@H]1[C@H](O)[C@H]2O)O[C@@H]7CO)O[C@@H]6CO)O[C@@H]5CO)O[C@@H]4CO)O[C@@H]3CO [α-CD, α-cyclodextrin] | – | – | – | – | – | Fold lower association constant of RLZ as compared to SBE-β-CD [2]: approximately 11 fold; Complexation (stability) constant KCS of RLZ/CD complex ([2]; pH 6.8, 310.15 K): 102.3 M⁻¹ |
| Nc1nc2ccc(OC(F)(F)F)cc2s1 [RLZ_gr] | – | 39.9 | 57.0 | 28.3 | 1.3 | Dose dissolved during 180 min ([3]; listed as ground RLZ): 72%; Similarity factor f2 ([3]; reference raw RLZ, f2 > 50 shows similarity): 49.9 |
